The results in this text go back to ChEMBL document CHEMBL1201862, “PubChem BioAssay data set” (2004).

Some test systems named below: MDA-N; MCF7; SK-MEL-28; MOLT-4; OVCAR-8; TK-10; A498; M19-MEL; DU-145; HOP-62; SW-620; K562; HCT-15; U-251; SK-MEL-2; Hs-578T; LXFL 529; KM12; SN12C; RPMI-8226.
What all share (experiment): NCI anticancer screen, dose series, 48 h

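Tested at 5 concentrations; 48 h exposure; 96-well plates; endpoints linearly interpolated, else capped at highest concentration. GI50 marks 50% less growth.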 The source made the active and inactive calls. No stated cut-off is given here; in the data, active = GI50 up to about 1.1 µM and inactive = higher.

On to `O=P1(NCCCl)OCCCN1CCCl` (stereo unspecified) [IFOSFAMIDE], for which the GI50 in the test on MDA-N was > 500000 nM (inactive); in the test with MCF7 it was 361000 nM (inactive); in the test on SK-MEL-28, 385000 nM (inactive); in the test with MOLT-4, 262000 nM (inactive); in the test with OVCAR-8, 388000 nM (inactive); with TK-10, > 471000 nM (inactive). The GI50 was 428000 nM (inactive) in the test with A498; 395000 nM (inactive) in the test on M19-MEL; > 500000 nM (inactive) in the test with DU-145; 341000 nM (inactive) in the test on HOP-62; 340000 nM (inactive) in the test with SW-620; 373000 nM (inactive) in the test with K562. Further, the GI50 in the test with HCT-15 is 376000 nM; in the test on U-251, 310000 nM (inactive); with SK-MEL-2, 382000 nM (inactive); in the test with Hs-578T, > 500000 nM (inactive); in the test with LXFL 529, 498000 nM (inactive); in the test with KM12 it was 406000 nM (inactive). In addition, the results for the GI50 in the test on SN12C and in the test with RPMI-8226 were 388000 nM (inactive) and 332000 nM (inactive), respectively.

For `CCN(CC)CCCNc1ccc2ncn3c4ccc(O)cc4c(=O)c1c23`, the GI50 with MDA-N is 6080 nM (inactive); in the test with MCF7 it was 687 nM (active); in the test on SK-MEL-28, 12400 nM (inactive); with MOLT-4, 41.1 nM (active); in the test with OVCAR-8, 467 nM (active); in the test with TK-10 it was 1690 nM (inactive). Further, the GI50 in the test with A498 was 4450 nM (inactive); with M19-MEL it was 5830 nM (inactive); in the test on DU-145, 1420 nM (inactive); in the test on HOP-62, 989 nM (active); with SW-620, 578 nM (active); in the test with K562, 1040 nM (active). The GI50 in the test on HCT-15 is 2710 nM; in the test with U-251, 1660 nM (inactive); in the test with SK-MEL-2 it was 3700 nM (inactive); in the test on Hs-578T, 390 nM (active); with LXFL 529, 2650 nM (inactive); with KM12, 3850 nM (inactive). The GI50 in the test with SN12C was 637 nM (active); with RPMI-8226, 2060 nM (inactive).

Turning to `COc1ccc2nc3ccccc3c(NCCCN(C)CCCl)c2c1`, the GI50 in the test with MDA-N is 311 nM (active); with MCF7, 213 nM (active); in the test on SK-MEL-28 it was 521 nM (active); with MOLT-4, < 13.3 nM (active); in the test on OVCAR-8, 142 nM (active); in the test on TK-10, 859 nM (active). For the same molecule, the GI50 in the test on A498 was 458 nM (active); with M19-MEL it was 353 nM (active); with DU-145, 333 nM (active); with HOP-62, 959 nM (active); with SW-620 it was 49.7 nM (active); with K562 it was 136 nM (active). In addition, the GI50 is 444 nM in the test on HCT-15; 287 nM (active) in the test with U-251; 557 nM (active) in the test with SK-MEL-2; 188 nM (active) in the test with Hs-578T; 99.5 nM (active) in the test with LXFL 529; 426 nM (active) with KM12. The GI50 with SN12C was 160 nM (active); in the test with RPMI-8226, 81.7 nM (active).

For `Cc1ccc(C)c(NC(=O)C(=O)CC(=O)c2cccc3ccccc23)c1`, the GI50 in the test on SK-MEL-28, with MOLT-4, in the test with OVCAR-8, with TK-10, in the test with A498 and with M19-MEL was > 100000 nM (inactive) each time. The GI50 is > 100000 nM (inactive) in the test on HOP-62; > 100000 nM (inactive) with SW-620; > 100000 nM (inactive) with K562; over 100000 nM with HCT-15; > 100000 nM (inactive) in the test on U-251; > 100000 nM (inactive) in the test with SK-MEL-2. Moreover, the GI50 with LXFL 529, in the test with KM12, in the test with SN12C and with RPMI-8226 was > 100000 nM (inactive) throughout.

As to `NC(CS)C(=O)NCCNc1ccc(NCCNC(=O)C(N)CS)c2c1C(=O)c1c(O)ccc(O)c1C2=O` (stereo unspecified), the GI50 was 359 nM (active) in the test on MDA-N; 4.02 nM (active) in the test on MCF7; 628 nM (active) in the test with SK-MEL-28; < 1 nM (active) in the test on MOLT-4; 22.5 nM (active) with OVCAR-8; 667 nM (active) with TK-10. Further, the GI50 is 77.1 nM (active) in the test with A498; 31.8 nM (active) in the test on M19-MEL; 26.1 nM (active) in the test on DU-145; 3.61 nM (active) with HOP-62; 29.2 nM (active) in the test on SW-620; 46.8 nM (active) with K562. In addition, the GI50 in the test with HCT-15 was 112 nM; with U-251 it was 5.79 nM (active); in the test with SK-MEL-2, 427 nM (active); with Hs-578T it was 137 nM (active); in the test on LXFL 529 it was 106 nM (active); in the test with KM12 it was 135 nM (active). Moreover, the GI50 is 8.36 nM (active) with SN12C and 41.7 nM (active) in the test with RPMI-8226.
